From patent US20230310474A1, “CORONAVIRUS TREATMENT COMPOSITION AND METHOD” (Cleveland State University, priority 2022, published 2023)

Columns and labels:
HCoV-OC43 [1] = test: microbe, parasite or virus in culture; format: cell-based
SARS-CoV-2 [2] = test: SARS-CoV-2 high-throughput screen (HTS) cytopathic effect assay in Vero 76 cells; format: cell-based; conditions: MOI 0.1, 48 hours
Neu1 = target: T1, Neu1 (Homo sapiens, UniProt Q99519); test: Neuraminidase (sialidase) activity assay with 4-MU-NANA in HEK293T cells transfected with Neu1; format: cell-based
T1 construct: expressed in transfected cells; host or cells: HEK293T

human sialidases = conditions: cited from earlier work
SARS-CoV-2 [3] = conditions: several clinical trials; cited from earlier work
THP-1 cells [4] = test: MTS cell viability assay in THP-1 cells; format: cell-based, human; conditions: all tested concentrations
Protocol: FIGS. 3A-J illustrate that Neu5Ac2en-OAcOMe exerts anti-viral effects in human cell models. […] (upper) or 37° C. (lower). Intracellular viral RNA was analyzed by RT-qPCR. FIGS. 3B-D show HCoV-OC43 (MOI = 2) infected THP-1 cells were treated with a gradient concentration of Neu5Ac2en-OAcOMe for 72 hours. Intracellular viral RNA (FIG. 3B, upper), extracellular progeny virus yields (FIG. 3B, lower and FIG. 3C) and intracellular nucleocapsid (FIG. 3D) were analyzed by RT-qPCR, TCID50 assay and immunoblot, respectively. The inhibitory and cytotoxic curves (3C) were obtained using the data from the lower panel in FIG. 3B and cell viability measured by MTS assay. CellTiter 96® AQueous One Solution Cell Proliferation Assay (MTS) (Promega, G3582) was performed as instructed in the kit manual. […] Sialylation was detected with biotin-MAA and biotin-SNA lectins. […] Nucleocapsid in the cell lysates was measured by western blot. […] The levels of intracellular nucleocapsid were analyzed by immunofluorescence (48 hours post-infection). […] ND, not detected. […]
(§1) To determine whether Neu5Ac2en-OAcOMe affects post-entry steps of the viral life cycle, THP-1 cells were infected with HCoV-OC43 for two hours and then treated the cells with Neu5Ac2en-OAcOMe. Intracellular viral RNA and viral titers were quantified in the cell culture supernatants 72 hours post-infection.

SARS-CoV-2 [5] = format: in vivo, K18-hACE2 transgenic mice; conditions: K18-hACE2 mice, IP on days 0-4, 1 x 10^4 PFU
HCoV-OC43 [6] = test: HCoV-OC43 binding and entry assay in pretreated THP-1 cells (4° C. or 37° C.); format: cell-based; conditions: THP-1 cells pretreated two hours; 4° C. one hour or 37° C. two hours post-infection
Protocol: Whether Neu5Ac2en-OAcOMe acts on the virus binding and entry steps of the viral life cycle was evaluated. THP-1 cells were treated with Neu5Ac2en-OAcOMe for two hours and then infected the cells with HCoV-OC43 at 4° C. or 37° C. Cells incubated at 4° C. were collected one hour post-infection and cells incubated at 37° C. were collected two hours post-infection. Intracellular viral RNA was quantified by RT-qPCR.

HCoV-OC43 [7] = test: HCoV-OC43 replication in epithelial cell lines (HEK293T, HeLa, BSC-1); format: cell-based
Protocol: Cells were fixed with 4% paraformaldehyde in phosphate buffered saline (PBS) at room temperature for 15 min and then permeabilized with 1% Triton X-100 in PBS at room temperature for 15 min. Immunofluorescence staining was performed. Images were acquired with an EVOS FL Auto Imaging System (Thermo Fisher Scientific).
Next, it was tested whether the observed efficacy of Neu5Ac2en-OAcOMe was not restricted to THP-1 cells. The efficacy of Neu5Ac2en-OAcOMe was evaluated in three epithelial cell lines (HEK293T cells, HeLa cells and BSC-1 cells). […] Therefore, cytosolic sialidase inhibitors represent a potential treatment for coronavirus infections.

THP-1 cells [8] = test: Cytokine production in THP-1 cells (human cytokine bead array); format: cell-based
Protocol: Mouse blood samples were obtained at indicated time points, and cytokines in the serum were determined using a mouse cytokine bead array designed for inflammatory cytokines (552364, BD Biosciences, San Jose, CA). Human cytokines in cell culture derived supernatants were determined using a human cytokine bead array designed for inflammatory cytokines (551811, BD Biosciences).
as §1

HCoV-OC43 [9] = system: HCoV-OC43
[10] = Intracellular conversion of membrane-permeable inhibitor; conditions: upon entering into the cells
[11] = HEK293T cells with Neu1 expression vector, 30 min at room temperature
[12] = HEK293T cells, HeLa cells and BSC-1 cells

## CCOC(=O)C1=C[C@@H](OC(CC)CC)[C@H](NC(C)=O)[C@@H](N)C1 [oseltamivir]
HCoV-OC43 [1]
  antiviral activity against HCoV-OC43 (viral transcripts and viral titer): did not show inhibitory activity
SARS-CoV-2 [2]
  protection activity (cell viability post SARS-CoV-2 infection): did not show inhibitory activity
Neu1
  sialidase activity in the cytoplasm: only slightly decreased
Human sialidases
  effect on human sialidases: almost no effect
SARS-CoV-2 [3]
  efficacy in treating SARS-CoV-2 infection: no positive outcomes were observed

## O=C(CO)N[C@H]1[C@H]([C@H](O)[C@H](O)CO)OC(C(=O)O)=C[C@@H]1O [Neu5Gc2en, reference compound]
HCoV-OC43 [1]
  antiviral activity against HCoV-OC43 (viral transcripts and viral titer): did not inhibit HCoV-OC43 replication
SARS-CoV-2 [2]
  protection activity (cell viability post SARS-CoV-2 infection): could not protect
Neu1; [11]
  cell surface sialidase activity: targets sialidase on cell surface

## CC1(C)Cc2c(sc(NC(=S)NC(=O)c3ccccc3)c2C(=O)O)CO1 [CID-1067700, reference compound]
HCoV-OC43 [1]
  HCoV-OC43 release: moderately inhibited

## CC(=O)N[C@H]1[C@H]([C@H](O)[C@H](O)CO)OC(C(=O)O)=C[C@@H]1N=C(N)N [zanamivir]
HCoV-OC43 [1]
  antiviral activity against HCoV-OC43 (viral transcripts and viral titer): did not show inhibitory activity
SARS-CoV-2 [2]
  protection activity (cell viability post SARS-CoV-2 infection): did not show inhibitory activity
Human sialidases
  effect on human sialidases: almost no effect

## COC(=O)C1=CC(OC(C)=O)[C@@H](NC(C)=O)C([C@H](OC(C)=O)[C@@H](COC(C)=O)OC(C)=O)O1 (stereo partly drawn) [Neu5Ac2en-OAcOMe]
HCoV-OC43 [1]
  N protein levels: significantly decreased
  antiviral activity against HCoV-OC43 (viral transcripts and viral titer): showed the highest antiviral activities
  sialylation of HCoV-OC43 N protein: increased sialylation
  viral replication at the level of viral transcripts and viral titers: significantly decreased viral replication
HCoV-OC43 [1]; Betacoronavirus 1, OC43, THP-1, read-out: IC50 of viral replication (viral titers in cell culture supernatants)
  IC50: 13.7 µM
SARS-CoV-2 [2]
  protection activity (cell viability post SARS-CoV-2 infection): showed the highest protection activities
THP-1 cells [4]
  toxicity in MTS assay: non-toxic at all tested concentrations
Neu1; [11]
  cell surface sialidase activity: did not affect
  total sialidase activity (total cell lysate): significantly decreased
SARS-CoV-2 [5]
  SARS-CoV-2-induced mortality: significant protection
  body weight loss: significant protection
HCoV-OC43 [6]
  virus binding and entry steps (intracellular viral RNA): did not affect virus binding and entry steps
HCoV-OC43 [7]; BSC-1 cells, MOI 0.1, 48 hours post-infection
  viral replication by immunofluorescence staining for HCoV-OC43-N protein: effectively suppressed viral replication
HCoV-OC43 [7]; [12]
  N protein levels in epithelial cell lines: significantly decreased
  viral replication in epithelial cell lines: inhibited viral replication in all three cell lines
THP-1 cells [8]
  cytokine production: did not induce cytokine production
HCoV-OC43 [9]; after HCoV-OC43 infection, 20 mg/kg IP
  body weight: significantly lower in vehicle-treated mice than in Neu5Ac2en-OAcOMe-treated mice
HCoV-OC43 [9]; day 5 post-infection
  brain and lung tissue damage (H&E staining): improved
  serum IL-6 level: substantial decrease
  serum TNF-α level: substantial decrease
HCoV-OC43 [9]; day 5 post-infection, 20 mg/kg IP
  HCoV-OC43 viral replication in the lungs, blood and brain: suppression of HCoV-OC43 viral replication
HCoV-OC43 [9]; in vivo, all treatment period
  toxic signs and symptoms: No toxic signs and symptoms were observed
HCoV-OC43 [9]; seven-day-old C57BL/6 pups, 20 mg/kg IP, 10 days observation
  survival: 50%
[10]
  intracellular conversion: readily converted to the corresponding Neu5Ac2en intracellularly
